Measured values published in patent EP4194000A1, “CISTUS MONSPELIENSIS EXTRACT AND COMPOSITIONS COMPRISING SAME FOR SKIN SOOTHING” (Pierre Fabre Dermo-Cosmétique, priority 2021, dated 2023).
Blank lines part the entries; values can stand above or below the compound they belong to. Ends that are not written are not given here.

Key:
Type in all cases: cell-based, humains
substance P = assay: Substance P release by sensory neurons derived from human pluripotent stem cells, stimulated with veratridine (ELISA)
Source text: Le but de cette étude est d'évaluer les propriétés modulatrices d'un extrait de Cistus monspeliensis dans l'inflammation neurogène cutanée.
Pour se faire, les inventeurs ont développé une approche expérimentale in vitro. Un modèle original de neurones sensoriels humains a été développé après une reprogrammation cellulaire de cellules souches pluripotentes humaines. Ce modèle permet d'étudier les propriétés inhibitrices de la libération de la substance P par les composés à tester, étudié après la stimulation. Ce neuropeptide, la substance P, étant le principal neuromédiateur impliqué dans les voies de la sensibilisation dans l'inflammation neurogène, la douleur et le prurit.
L'étape initiale est la reprogrammation de cellules souches pluripotentes humaines par l'utilisation successive de différents cocktails de facteurs de croissance.
Les caractérisations phénotypiques et morphologiques ont permis de vérifier le pattern des neurones sensoriels avec notamment l'expression des récepteurs spécifiques tels que TrKA, 5HT-2, P2RX3 ou des canaux tels que TRPV1, Nav1.7, Nav1.8, TRPM8 avec une colocalisation avec des marqueurs neuronaux (Tuj1, Brn3A). Ces caractérisations permettent d'établir une durée de reprogrammation pour atteindre un pattern optimal qui est entre J40 et J47 après le début des traitements avec le cocktail des facteurs de croissance.
L'essai est réalisé sur le modèle de neurones sensoriels en culture dans un mélange de milieu (RPMI/N2/B27/Glutamax) en absence (conditions contrôle) ou en présence (groupes traités) des produits à tester. Ces deux conditions sont testées en présence de Vératridine ou en son absence. […] Les niveaux du neuropeptide qu'est la substance P sont quantifiés dix minutes après l'ajout de Veratridine. […]
La substance P libérée est mesurée dans les milieux d'incubation du groupe non traité (contrôle) et des groupes traités après ou non la stimulation de Vératridine. Elle est quantifiée par ELISA selon les instructions du fournisseur. […]

IL-17 = IL-17 release by isolated, amplified Th17 lymphocytes stimulated with anti-CD3/anti-CD28 beads (ELISA)
Source text: (§1) Le but de cette étude est d'évaluer l'activité potentielle d'un extrait de Cistus monspeliensis selon l'invention pour moduler la production de cytokines impliquées dans le psoriasis et la dermatite atopique. Pour se faire, des lymphocytes Th17 isolés et amplifiés à partir du sang circulant de donneurs sont utilisés comme modèle in vitro d'immunopathogénèse du psoriasis. […]
(§2) Les lymphocytes T sont triés à partir de cellules sanguines récupérées de poches de sang fournies par l'Etablissement Français du sang, pour obtenir le phénotype suivant : CD4+ CD45RA- CXCR3- CCR6+. Le nombre de lymphocytes Th17 ainsi obtenu est augmenté par une mise en culture de ces cellules en présence d'un mélange de cytokines (IL-2, anti-TNFα et anti-INFγ) pendant deux semaines.
(§3) Le test est réalisé sur des lymphocytes Th17 humains isolés et amplifiés en absence (conditions contrôle) ou en présence (traité) des composés à tester et sont stimulés ou non par les facteurs de stimulation anti-CD3/anti-CD28.
(§4) Les teneurs des cytokines pro-inflammatoires de Th17 (IL-17 et IL-22) sont quantifiées 24h après la stimulation.
(§5) Les lymphocytes sont traités avec les composés à tester 30 minutes avant la stimulation et pendant 24 heures.
(§6) La Nicardipine, bloqueur des canaux calciques non-sélectifs a été testée (10 µg/ml), solubilisée également dans le DMSO, est utilisée comme contrôle positif. […]

IL-22 = IL-22 release by isolated, amplified Th17 lymphocytes stimulated with anti-CD3/anti-CD28 beads (ELISA)
Source text: as §1, §2, §3, §4, §5, §6

PAR-2 = target: T1, PAR-2 (Homo sapiens, UniProt P55085); assay: Aequorin test, agonist activity on recombinant PAR-2; conditions: reference agonist for PAR-2; read-out: CE50 (the source's name)
T1 construct: expressed in transfected cells; host or cells: CHO-K1 mt aequorin (parental line named; inferred to be the host of the recombinant cells)
T1 sequence (P55085 26-397): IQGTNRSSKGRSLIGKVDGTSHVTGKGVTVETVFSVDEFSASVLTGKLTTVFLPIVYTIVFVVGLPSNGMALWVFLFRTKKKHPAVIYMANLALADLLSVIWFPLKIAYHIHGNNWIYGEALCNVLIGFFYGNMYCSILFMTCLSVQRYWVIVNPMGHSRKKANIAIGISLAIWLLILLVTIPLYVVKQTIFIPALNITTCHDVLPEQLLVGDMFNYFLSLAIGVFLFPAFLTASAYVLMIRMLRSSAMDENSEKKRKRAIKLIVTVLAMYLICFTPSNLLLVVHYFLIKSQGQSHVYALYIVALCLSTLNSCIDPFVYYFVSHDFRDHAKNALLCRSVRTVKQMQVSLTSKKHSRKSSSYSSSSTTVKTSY
Source text: Les inventeurs ont évalué les effets d'un extrait de Cistus monspeliensis sur deux cibles étroitement reliées au prurit, PAR-2 et MRGPRX2.
Les PAR-2 sont des récepteurs couplés aux protéines G. PAR-2 module les réponses inflammatoires, joue un rôle dans l'obésité, le métabolisme et les cancers. PAR-2 agit comme un senseur pour des enzymes protéolytiques générées pendant l'infection. PAR-2 serait retrouvé dans les kératinocytes épidermiques au niveau de la couche stratum granulosum. Des PAR-2 fonctionnels sont également exprimés dans plusieurs types de cellules immunitaires, telles que les éosinophiles, les neutrophiles, les monocytes, les macrophages, les cellules dendritiques, les mastocytes et les cellules T. Le PAR-2 est activé par clivage protéolytique par la tryptase qui est la protéase principale des cellules mastocytaires et la kallikréine qui est impliquée dans des processus inflammatoires et d'homéostasie épidermique. De plus, le clivage protéolytique de PAR-2 induit une signalisation calcique s'il est exprimé dans les neurones participant à la voie afférente. L'activation de MRGPRX2 ([…] G-Protein coupled Receptor) entraine une dégranulation des cellules mastocytaires avec par la suite des réactions pseudo-allergiques. […]

[1] = 10µg/ml, Th17 stimulated anti-CD3/anti-CD28, 24h

Compound: COc1ccc(C(=O)O[C@H]2CC[C@@]3(C)[C@@H]4CC[C@H]5[C@]6(O)C[C@H](O)[C@@]7(O)[C@@H](CN8C[C@@H](C)CC[C@H]8[C@@]7(C)O)[C@]6(O)C[C@@]53O[C@]24O)cc1OC [Vératridine]
substance P, Données brutes Moyenne (substance P; Vératridine 3µM alone (stimulus), 10 minutes): 96,26 pg/ml

Compound: COC(=O)C1=C(C)NC(C)=C(C(=O)OCCN(C)Cc2ccccc2)C1c1cccc([N+](=O)[O-])c1 (centres unmarked) [Nicardipine]
IL-17 (moyenne) (IL-17; [1]): 721 pg/mL
inhibition at 10 µg/mL (IL-17; Lymphocyte): 43%
IL-22 (moyenne) (IL-22; [1]): 440 pg/mL
inhibition at 10 µg/mL (IL-22; Lymphocyte): 37%

Compound: CCN(CC)CC(=O)Nc1c(C)cccc1C [Lidocaïne, lidocaïne]
substance P, Données brutes Moyenne (substance P; 100µM, under Vératridine 3µM stimulation): 34,76 pg/ml
libération de substance P (result in words) (substance P; 100µM, under Vératridine stimulation): réduit significativement la libération de substance P

EC50 (PAR-2): 524 nM
Compound: SLIGRL-NH2 [SLIGRL-NH2]
